Data: PubChem BioAssay (NCI)
“And” between values parts separate entries of the source, which are not always exact repeats. Equal entries are not always repeated.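 Test compounds were applied to cells in 96-well plates for 48 hours at 5 doses. GI50 = concentration required for 50% inhibition of growth. TGI is the concentration that stops growth completely.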

How the values were obtained:
Assay in all cases: growth of human tumour cells (NCI), 48 h
UACC-62 melanoma = test system: UACC-62 melanoma
SK-MEL-5 melanoma = test system: SK-MEL-5 melanoma
UACC-257 melanoma = test system: UACC-257 melanoma
HOP-92 NSCLC = test system: HOP-92 NSCLC
MALME-3M melanoma = test system: MALME-3M melanoma
RPMI-8226 leukemia = test system: RPMI-8226 leukemia
MOLT-4 leukemia = test system: MOLT-4 leukemia
NCI/ADR-RES ovarian = test system: NCI/ADR-RES ovarian
MDA-MB-231 breast = test system: MDA-MB-231 breast
MCF7 breast = test system: MCF7 breast

Structure (SMILES)	TGI (UACC-62 melanoma) [µM]	TGI (SK-MEL-5 melanoma) [µM]	TGI (UACC-257 melanoma) [µM]	TGI (HOP-92 NSCLC) [µM]	TGI (MALME-3M melanoma) [µM]	TGI (RPMI-8226 leukemia) [µM]	TGI (MOLT-4 leukemia) [µM]	GI50 (UACC-62 melanoma) [µM]	GI50 (NCI/ADR-RES ovarian) [µM]	TGI (NCI/ADR-RES ovarian) [µM]	GI50 (SK-MEL-5 melanoma) [µM]	GI50 (MDA-MB-231 breast) [µM]	TGI (MDA-MB-231 breast) [µM]	GI50 (UACC-257 melanoma) [µM]	GI50 (HOP-92 NSCLC) [µM]	GI50 (MOLT-4 leukemia) [µM]	GI50 (MALME-3M melanoma) [µM]	GI50 (RPMI-8226 leukemia)	GI50 (MCF7 breast) [µM]	TGI (MCF7 breast) [µM]
O=C(CC(=O)N1N=C(c2ccccc2)C(N=Nc2ccc(C(=O)O)cc2)C1=O)Nc1ccc(F)cc1 (stereo unspecified)	42.8	46.9	> 100	> 100	> 100	99	–	–	–	–	–	–	–	–	–	–	–	–	–	–
c1ccc2c(CNCCCCCCNCc3cccc4ccccc34)cccc2c1	21.6	19.9	3.17	20.5	3.42	6.79	6.46	–	–	–	–	–	–	–	–	–	–	–	–	–
CC#C[C@@]1(O)CCCC[C@@H]1O	> 100	> 100	> 100	> 100	> 100	> 100	> 100	–	–	–	–	–	–	–	–	–	–	–	–	–
Cc1cc(NS(=O)(=O)c2ccc(Nc3c4ccccc4nc4c(C(=O)Nc5ccc(S(=O)(=O)N=C(N)N)cc5)cccc34)cc2)no1	> 100	> 100	> 100	> 100	> 100	> 100	> 100	–	–	–	–	–	–	–	–	–	–	–	–	–
COC(=O)/C=C/C(=O)C1C(C(=O)OC)C2(C(=O)OC)CCC1(C(=O)OC)N2 (stereo unspecified)	> 100	> 100	–	–	> 100	> 100	> 100	–	–	–	–	–	–	–	–	–	–	–	–	–
Cc1cc(C)cc(-n2c3nc(=O)n(C)c(=O)c-3nc3ccccc32)c1	31.5	30.8	31.2	–	30.3	> 100	52.4	–	–	–	–	–	–	–	–	–	–	–	–	–
CC1(C)CCC[C@]23C(=O)O[C@](O)(C(=O)C4=C[C@@](C)(/C=C/CCCc5ccc6ccc7cccc8ccc5c6c78)CC[C@@]42O)[C@@H]13	0.343	0.327	0.586	0.302	0.332	0.571	11.2	0.176	0.221	0.532	0.185	0.197	0.431	0.224	0.148	0.265	0.177	0.196 µM	–	–
COC(=O)C(=O)C1(CCC(C)=O)c2ccccc2-c2ccccc21	> 100	> 100	> 100	–	> 100	> 100	> 100	–	–	–	–	–	–	–	–	–	–	–	–	–
CCSc1oc(-c2ccccc2)nc1[P+](c1ccccc1)(c1ccccc1)c1ccccc1	1.44	0.315	1.28	0.551	1.3	0.52	–	0.305	2.29	9.58	0.164	0.266	1.08	0.309	0.15	–	0.287	0.135 µM	0.246	1.28
O=C1c2ccccc2C(=O)c2c1ccc(C(Br)Br)c2[N+](=O)[O-]	3.1	3.73	3.28	3.3	3.71	–	3.43	1.31	2.01	6.56	1.77	1.55	3.13	1.74	1.7	1.23	1.94	–	0.598	2.54
COC(=O)C[CH](C(=O)OC)[Ge]([CH3])([CH3])[S]c1ccccc1 (stereo unspecified)	36.2	> 100	> 100	95.8	> 100	56.7	18.4	15.8	–	–	33.1	–	–	33	48.6	3.37	> 100	17.1 µM	–	–
C=C(CN1CCN(c2ccccc2OC)CC1)c1ccc(C(=O)Nc2ccccc2N)cc1	6.92	11.3	–	44.5	–	> 50	–	1.18	0.143	1.56	2.58	0.315	4.4	–	5.73	–	–	5.11 µM	16.7	> 50
Cc1cccc(NC(=O)C(=O)C2C(=O)NC(=O)NC2=O)c1C	> 100	> 100	> 100	> 100	> 100	> 100	> 100	–	–	–	–	–	–	–	–	–	–	–	–	–
CC(C)[C@@H]1C=C(c2ccccc2)c2ccccc2C1C(C#N)(C#N)C(C)C (stereo partly specified)	> 100	> 100	> 100	> 100	> 100	> 100	> 100	–	–	–	–	–	–	–	–	–	–	–	–	–
Cn1cnc([N+](=O)[O-])c1Sc1ccccn1	> 100	> 100	> 100	> 100	> 100	> 100	> 100	–	–	–	–	–	–	–	–	–	–	–	–	–
C=CN1C(=O)OC(c2ccccc2)C1c1ccccc1 (stereo unspecified)	> 100	> 100	> 100	> 100	> 100	> 100	> 100	> 100	–	–	> 100	–	–	> 100	> 100	> 100	> 100	> 31.6 µM and 88.6 µM	–	–
N#Cc1cccc(NC(=O)c2ccc(C(=O)O)c(C(=O)c3ccc(C(=O)O)c(C(=O)Nc4cccc(C#N)c4)c3)c2)c1	> 100	> 100	> 100	> 100	> 100	> 100	> 100	–	–	–	–	–	–	–	–	–	–	–	–	–
COC(=O)c1c[nH]c(=O)[nH]c1=O	> 100	> 100	> 100	> 100	–	> 100	> 100	–	–	> 100	–	–	–	–	–	–	–	–	–	> 100
S=c1nc(-c2nc(=S)[nH]c3c2CCCCCCCCCC3)c2c([nH]1)CCCCCCCCCC2	> 100	> 100	> 100	> 100	> 100	–	> 100	–	–	> 100	–	–	> 100	–	–	–	–	–	–	> 100
CN(C)C[C@H]1CC[C@@H](CN(C)C)C1=O	16.6	23.6	16	20.5	7.25	> 12.9	4.69	–	–	–	–	–	17.3	–	–	–	–	1.17 µM	–	6.19
CCCCCCCCCCCC(=O)OCC1OC(n2cc(F)c(=O)[nH]c2=O)C(NC(=O)OCc2ccccc2)C(O)C1O (stereo unspecified)	38.6	34.6	50.8	40.7	47.9	53.5	53.4	–	–	–	–	–	–	–	–	–	–	–	–	–
O=P(Oc1ccc(Cl)cc1)(Oc1ccc(Cl)cc1)N1CC1	> 10	> 10	> 10	–	> 10	> 10	> 10	–	–	> 10	–	–	> 10	–	–	–	–	–	–	> 10
